Values after ≈ are worked out from the molar mass of the structure shown. Like-named read-outs stand apart in the source and are kept apart here.
What was measured:
[1] = test system: Staphylococcus aureus ATCC 29213; assay: MIC by microbroth dilution, S. aureus 29213; type: cell-based; conditions: for MIC: Staphylococcus aureus, ATCC29213, 24 h 37° C., read-out: MIC S1 = S. aureus 29213; for MIC S1 = S. aureus 29213: 24 h 37° C.
Experimental: (§1) Minimum Inhibitory Concentration (MIC) Determination:
(§2) Bacteria used in this study were Staphylococcus aureus ATCC 29213, Escherichia coli ATCC 25922, Escherichia coli K12, Staphylococcus aureus ATCC 33591, Pseudomonas aeruginosa ATCC 27853, and Enterococcus faecalis ATCC 29212. All compounds were tested by the microbroth dilution method following Clinical and Laboratory Standards Institute guidelines. Briefly, Mueller-Hinton broth (Difco Laboratories, Becton Dickinson) was inoculated with each organism and incubated at 37° C. with shaking to establish logarithmic growth. Following incubation, each culture was pelleted by centrifugation (3,500×g for 5 min) and resuspended in 0.85% sterile saline solution to an optical density at 625 nm of 0.1. Samples were tested in triplicate using 96 well microplates (Corning Costar Corp. Cambridge, Mass.), yielding final bacterial concentrations of 5×10^5 CFU/mL, and incubated for 24 h at 37° C. Following incubation, optical densities of each well were determined with a μQuant microplate spectrophotometer (BioTek Instruments, Inc., Winooski, Vt.) at 625 nm.

[2] = target: E. coli DNA topoisomerase I (Escherichia coli, UniProt P06612); assay: Inhibition assay against E. coli DNA topoisomerase I (plasmid relaxation, agarose gel); type: biochemical; conditions: 6 nM enzyme; for concentration needed to completely inhibit the activities of E. coli DNA topoisomerase I: gel titration (FIG. 3A, 3B); for IC50: supercoiled pBAD-GFPuv, 15 min 37° C., average of at least three determinations, read-out: IC50 ecTopo I
Experimental: Inhibition Assays Against E. coli DNA Topoisomerase I:
Inhibition assays were used to determine the activities of the newly synthesized compounds against E. coli DNA topoisomerase I. The reaction mixture (30 μl) contained 20 mM Tris-HCl at pH 7.9, 50 mM KAc, 10 mM Mg(Ac)2, 1 mM DTT, 1 μg/mL BSA, 150 ng of the supercoiled plasmid pBAD-GFPuv, 6 nM of E. coli topoisomerase I, and one of the compounds at a specified concentration that ranges from 0.5 to 45 μM. All components were assembled on ice and incubated for 15 min at 37° C. After the incubation, the reactions were terminated by extraction with an equal volume of phenol. The topological state of the DNA samples was analyzed with 1% agarose gel electrophoresis in 1×TAE buffer, pH 7.8. Following electrophoresis, the agarose gel was stained with Ethidium Bromide, destained, and photographed under UV light. The intensity of DNA topoisomers was determined using KODAK 1D Image Analysis Software. The percentage of (−) supercoiled DNA was calculated from a comparison of the intensity of the (−) supercoiled band with the total intensity of all DNA topoisomers. The IC50 was calculated as the amount of the drug for which 50% of the DNA was still in a (−) supercoiled state.

[3] = test system: Escherichia coli ATCC 25922; assay: MIC by microbroth dilution, E. coli 25922; type: cell-based; conditions: for MIC: Escherichia coli, ATCC25922, 24 h 37° C., read-out: MIC S3 = E. coli 25922; for MIC S3 = E. coli 25922: 24 h 37° C.
Experimental: as §1, §2

[4] = target: human DNA topoisomerase II (Homo sapiens, UniProt P11388); assay: Inhibition assay against human DNA topoisomerase II (plasmid relaxation, agarose gel); type: biochemical; conditions: for inhibition of human DNA topoisomerase II activities at 50 μM: 50 μM compound; for IC50: 4 units enzyme, supercoiled pBAD-GFPuv, 30 min 37° C., read-out: IC50 hTopo II
Experimental: Inhibition Assays Against Human DNA Topoisomerase II:
The reaction mixture (25 μl) contained 20 mM Tris-HCl at pH 7.9, 50 mM KAc, 10 mM Mg(Ac)2, 1 mM DTT, 1 μg/mL BSA, 200 ng supercoiled plasmid pBAD-GFPuv, 4 units of Human topoisomerase II, and one of the compounds at a final concentration that ranges from 5 to 50 μM. All components were assembled on ice and incubated for 30 minutes at 37° C. After the incubation, the reactions were terminated by extraction with an equal volume of phenol. The topological state of the DNA samples was analyzed with 1% agarose gel electrophoresis in 1×TAE buffer, pH 7.8. Following electrophoresis, the agarose gel was stained with Ethidium Bromide, destained, and photographed under UV light. The intensity of DNA topoisomers was determined using KODAK 1D Image Analysis Software. The percentage of (−) supercoiled DNA was calculated from a comparison of the intensity of the (−) supercoiled band with the total intensity of all DNA topoisomers. The IC50 was calculated as the amount of the drug for which 50% of the DNA was in a (−) supercoiled state.

[5] = test system: DU 145 cell line; assay: Cytotoxicity, sulforhodamine B assay; type: cell-based; conditions: for IC50: 48 h treatment, SRB stain, read-out: IC50 against DU-145
Experimental: Cytotoxicity Experiments:
The DU 145 cell line was cultured according to ATCC protocols. Cells were harvested using trypsin-EDTA solution and counted using trypan blue exclusion. Cells were seeded at a volume of 100 μl/well in the wells of tissue culture treated 96 well plates at a density of […] per well. Seeded 96 well plates were returned to incubator (37° C., 5% CO2) for twenty-four hours to resume exponential growth.
Cell lines were then treated with 100 μl of each test compound or cisplatin in triplicate. The final concentrations of each treatment were: 20, 10, 5, 2.5, 1.25, 0.625 and 0.0625 μM. Each plate also contained wells containing untreated cells and media only as controls. After receiving treatments, the 96 well plates were returned to incubator (37° C., 5% CO2) for forty-eight hours.
After forty-eight hours of treatment, the treated plates were fixed with trichloroacetic acid and stained with sulforhodamine B using a modified version of the protocol described by Skehan et al. In short, 50 μl of cold 80% TCA was added to each well, at a final concentration of 16% TCA, and plates were incubated at 4° C. for one hour. The media and TCA solution was discarded and plates were washed four times using room temperature tap water. Plates were allowed to air dry overnight. Plates were stained with the addition of 70 μl/well of […] SRB in 1% (v/v) acetic acid solution. Samples were stained for fifteen minutes and then stain was discarded. Plates were then washed four times with 1% (v/v) acetic acid solution to remove unbound stain and allowed to air dry overnight at room temperature. Finally, SRB stain was solubilized by adding 150 μl of 10 mM unbuffered Tris base to each well. The absorbance of each samples at 560 nm was recorded using a Tecan plate reader and the IC50 was determined using Origin 4.0 software. Each study was completed in duplicate.

[6] = test system: Staphylococcus aureus ATCC 33591; assay: MIC by microbroth dilution, S. aureus 33591; type: cell-based; conditions: for MIC: Staphylococcus aureus, ATCC33591, 24 h 37° C., read-out: MIC S2 = S. aureus 33591; for MIC S2 = S. aureus 33591: 24 h 37° C.
Experimental: as §1, §2

[7] = test system: Pseudomonas aeruginosa ATCC 27853; assay: MIC by microbroth dilution, P. aeruginosa 27853; type: cell-based; conditions: for MIC: Pseudomonas aeruginosa, ATCC27853, 24 h 37° C., read-out: MIC S4 = P. aeruginosa 27853; for MIC S4 = P. aeruginosa 27853: 24 h 37° C.
Experimental: as §1, §2

human DNA topoisomerase II, sequence (P11388 whole entry): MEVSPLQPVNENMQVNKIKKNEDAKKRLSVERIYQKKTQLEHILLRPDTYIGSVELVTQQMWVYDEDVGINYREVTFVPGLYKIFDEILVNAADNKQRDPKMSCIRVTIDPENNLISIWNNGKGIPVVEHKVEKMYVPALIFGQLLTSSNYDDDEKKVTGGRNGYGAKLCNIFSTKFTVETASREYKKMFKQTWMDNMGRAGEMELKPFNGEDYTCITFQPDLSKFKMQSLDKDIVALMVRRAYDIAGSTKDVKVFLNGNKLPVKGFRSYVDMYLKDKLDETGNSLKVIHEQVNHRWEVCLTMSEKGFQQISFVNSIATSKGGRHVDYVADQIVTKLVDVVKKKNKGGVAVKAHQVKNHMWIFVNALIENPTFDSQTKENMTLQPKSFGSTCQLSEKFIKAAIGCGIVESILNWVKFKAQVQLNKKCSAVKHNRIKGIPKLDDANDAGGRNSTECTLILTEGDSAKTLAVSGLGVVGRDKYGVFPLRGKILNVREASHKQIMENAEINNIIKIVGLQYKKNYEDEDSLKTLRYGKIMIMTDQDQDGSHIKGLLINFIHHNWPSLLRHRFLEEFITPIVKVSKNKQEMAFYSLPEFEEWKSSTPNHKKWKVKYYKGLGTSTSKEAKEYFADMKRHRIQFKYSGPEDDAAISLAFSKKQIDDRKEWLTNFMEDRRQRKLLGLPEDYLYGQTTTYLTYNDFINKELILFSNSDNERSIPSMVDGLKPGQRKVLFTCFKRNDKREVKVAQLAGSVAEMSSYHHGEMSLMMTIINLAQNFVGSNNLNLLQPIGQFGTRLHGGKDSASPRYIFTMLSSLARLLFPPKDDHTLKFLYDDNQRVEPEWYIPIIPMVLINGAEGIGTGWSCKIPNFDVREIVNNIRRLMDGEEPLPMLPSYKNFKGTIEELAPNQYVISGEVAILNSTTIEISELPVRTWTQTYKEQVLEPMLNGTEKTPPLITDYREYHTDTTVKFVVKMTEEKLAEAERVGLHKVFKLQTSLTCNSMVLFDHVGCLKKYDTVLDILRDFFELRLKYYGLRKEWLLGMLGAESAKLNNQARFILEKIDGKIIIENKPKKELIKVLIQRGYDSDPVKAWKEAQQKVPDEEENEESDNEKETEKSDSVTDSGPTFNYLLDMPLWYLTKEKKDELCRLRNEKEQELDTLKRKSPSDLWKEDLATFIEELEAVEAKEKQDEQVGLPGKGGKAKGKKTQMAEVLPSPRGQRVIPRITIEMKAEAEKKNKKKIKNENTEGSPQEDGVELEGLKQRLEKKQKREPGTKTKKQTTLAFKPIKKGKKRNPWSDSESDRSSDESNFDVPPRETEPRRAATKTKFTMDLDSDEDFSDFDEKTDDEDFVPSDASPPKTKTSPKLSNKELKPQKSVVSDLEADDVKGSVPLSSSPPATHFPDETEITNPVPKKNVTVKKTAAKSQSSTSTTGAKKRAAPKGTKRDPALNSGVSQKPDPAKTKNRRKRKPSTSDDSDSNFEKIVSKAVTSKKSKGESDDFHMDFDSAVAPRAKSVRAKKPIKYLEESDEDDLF
E. coli DNA topoisomerase I, sequence (P06612 whole entry): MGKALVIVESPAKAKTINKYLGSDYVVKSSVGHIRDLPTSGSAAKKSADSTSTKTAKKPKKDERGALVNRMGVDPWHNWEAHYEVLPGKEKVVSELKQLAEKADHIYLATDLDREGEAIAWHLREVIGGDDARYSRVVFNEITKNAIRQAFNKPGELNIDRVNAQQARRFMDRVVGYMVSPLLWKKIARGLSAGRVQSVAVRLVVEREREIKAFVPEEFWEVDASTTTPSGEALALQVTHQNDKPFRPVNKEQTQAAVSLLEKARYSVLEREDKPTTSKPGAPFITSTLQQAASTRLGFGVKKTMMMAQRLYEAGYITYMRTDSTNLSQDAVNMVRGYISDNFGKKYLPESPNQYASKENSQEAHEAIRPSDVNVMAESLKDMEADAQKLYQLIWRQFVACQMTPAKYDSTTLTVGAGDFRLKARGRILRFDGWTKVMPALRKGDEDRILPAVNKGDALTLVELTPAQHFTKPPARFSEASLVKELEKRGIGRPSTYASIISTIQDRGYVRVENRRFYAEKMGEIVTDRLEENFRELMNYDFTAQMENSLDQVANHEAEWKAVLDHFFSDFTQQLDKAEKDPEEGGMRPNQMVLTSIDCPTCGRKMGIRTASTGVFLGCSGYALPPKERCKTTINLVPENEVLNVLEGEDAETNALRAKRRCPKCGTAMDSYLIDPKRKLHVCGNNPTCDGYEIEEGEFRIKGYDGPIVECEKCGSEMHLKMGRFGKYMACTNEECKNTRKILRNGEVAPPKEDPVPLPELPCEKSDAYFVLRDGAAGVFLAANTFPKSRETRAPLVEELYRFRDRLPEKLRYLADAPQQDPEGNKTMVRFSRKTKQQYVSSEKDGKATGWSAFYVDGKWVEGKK

Row | Compound | MIC [1] | concentration needed to completely inhibit the activities of E. coli DNA topoisomerase I [2] | IC50 [2] | MIC [3] | inhibition of human DNA topoisomerase II activities at 50 μM [4] | IC50 [4] | IC50 ([5]; Homo sapiens, DU-145) | MIC [6] | melting point | MIC [7] | cytotoxicity relative to Hoechst 33242 ([5]; DU-145, 48 h) | MIC S1 = S. aureus 29213 [1] | MIC S4 = P. aeruginosa 27853 [7] | MIC S3 = E. coli 25922 [3] | MIC S2 = S. aureus 33591 [6] | IC50 [5]
1 | C#CCOc1ccc(-c2nc3ccc(-c4nc5ccc(N6CCN(C)CC6)cc5[nH]4)cc3[nH]2)cc1 [DPA 151, 6-(4-methylpiperazin-1-yl)-2′-(4-(prop-2-ynyloxy)phenyl)-1H,3′H-2,5′-bibenzo[d]imidazole] | 2 to 4 mg/L (≈ 4.32 to 8.65 µM) | approximately 5 μM | 5.5 ± 0.5 µM | 8 mg/L (≈ 17.3 µM) | partially inhibit | 51.6 ± 2.5 µM | 3.24 ± 0.71 µM | 2 to 4 mg/L (≈ 4.32 to 8.65 µM) |  |  |  |  |  |  |  | 
2 | C#CCCCCOc1ccc(-c2nc3ccc(-c4nc5ccc(N6CCN(C)CC6)cc5[nH]4)cc3[nH]2)cc1 [DPA 152, 2′-(4-(hex-5-ynyloxy)phenyl)-6-(4-methylpiperazin-1-yl)-1H,3′H-2,5′-bibenzo[d]imidazole] | 2 to 4 mg/L (≈ 3.96 to 7.93 µM) |  | 4.57 ± 0.81 µM | 8 to 16 mg/L (≈ 15.9 to 31.7 µM) |  |  | 2.12 ± 0.46 µM | 2 to 4 mg/L (≈ 3.96 to 7.93 µM) | 210 to 220 °C | 16 mg/L (≈ 31.7 µM) | nearly twice as toxic as Hoechst 33242 |  |  |  |  | 
3 | C#CCCCCCCCCCOc1ccc(-c2nc3ccc(-c4nc5ccc(N6CCN(C)CC6)cc5[nH]4)cc3[nH]2)cc1 [DPA 153, 6-(4-methylpiperazin-1-yl)-2′-(4-(undec-10-ynyloxy)phenyl)-1H,3′H-2,5′-bibenzo[d]imidazole] |  |  | 2.47 ± 0.06 µM |  |  |  | > 10 µM |  | 170 to 175 °C |  |  |  |  |  |  | 
4 | C#CCOCCCCOc1ccc(-c2nc3ccc(-c4nc5ccc(N6CCN(C)CC6)cc5[nH]4)cc3[nH]2)cc1 [DPA 154, 6-(4-methylpiperazin-1-yl)-2′-(4-(4-(prop-2-ynyloxy)butoxy)phenyl)-1H,3′H-2,5′-bibenzo[d]imidazole] | 2 to 4 mg/L (≈ 3.74 to 7.48 µM) |  | 6.63 ± 0.47 µM | 8 to 16 mg/L (≈ 15 to 29.9 µM) |  |  | 2.79 ± 0.13 µM | 2 to 4 mg/L (≈ 3.74 to 7.48 µM) | 150 to 155 °C | 16 mg/L (≈ 29.9 µM) |  |  |  |  |  | 
5 | CN1CCN(c2ccc3[nH]c(-c4ccc5[nH]c(-c6ccc(O)cc6)nc5c4)nc3c2)CC1 [Hoechst 33258, reference compound] |  | approximately 20 μM | 19.5 ± 1.32 µM |  | completely inhibit | 28.9 ± 4.45 µM |  |  |  |  |  | ≥32^ ^ μg/ml | 16 mg/L (≈ 37.7 µM) | 16 mg/L (≈ 37.7 µM) | 16 to 32 mg/L | 
6 | CCOc1ccc(-c2nc3ccc(-c4nc5ccc(N6CCN(C)CC6)cc5[nH]4)cc3[nH]2)cc1 [Hoechst 33342, reference compound] |  |  | 29.8 ± 2.75 µM |  |  |  |  |  |  |  |  | 2 to 4 µg/mL | 16 mg/L (≈ 35.4 µM) | 8 to 16 mg/L | 2 to 4 mg/L | 4.25 µM

Reference: patent US9920014B2, “Selective inhibition of bacterial topoisomerase I” (THE FLORIDA INTERNATIONAL BOARD OF TRUSTEES MODESTO A. …, priority 2013, dated 2018)
